According to US20060142304A1, “Method for treating or preventing pruritic and neurogenic skin disorders” (priority 2004, published 2006):
Where a name gives a salt, the structure may show the parent alone.

What was measured:
CD-1 mice [1] = assay: Resiniferatoxin-induced neurogenic inflammation (ear edema) in the mouse ear; type: in vivo; details: for % Inhibition of the Ear Edema: topical to left ear (20 μL) immediately after resiniferatoxin (0.05%) challenge, 7-mm ear biopsy weight 30 minutes after, lidocaine 0.5% w/v, sertaconazole nitrate 1% w/v in 70% ethanol/30% propylene glycol
Procedure: Eight Albino male CD-1 mice per group, 7-9 weeks old, were used. Induction of neurogenic inflammation in the mouse ear was based on known methods (Inoue H, et al., Br J Pharmacol. 110:1614-1620, 1993). A 20-μl volume of Resiniferatoxin (0.05%) prepared in acetone was applied to the left ears (8 mice per treatment group). The right ear was treated as a control and not treated. Lidocaine hydrochloride (Sigma Aldrich, St. Louis, Mo.) was prepared as a 0.5% w/v solution in 70% ethanol/30% propylene glycol vehicle. Sertaconazole nitrate (Grupo Ferrer International, Barcelona, Spain) was prepared as a 1.0% w/v solution in a 70% ethanol/30% propylene glycol vehicle and applied to the left ear (20 μL) immediately after resiniferatoxin challenge. The mice were sacrificed by CO2 inhalation 30 minutes after applying the solutions. The left and right ears were removed and a 7-mm biopsy was removed from each ear and weighed. The difference in biopsy weights between the right and left ear was calculated. The percent inhibition was calculated by comparing treatments to resiniferatoxin alone. Anti-neurogenic inflammation effects of compounds are evident as an inhibition of the increase in ear weight.

CD-1 mice [2] = assay: Substance P-induced itch-associated scratching behavior in mice; type: in vivo, mouse
From the text: In this model, an itch-associated response is induced by intradermal injection of the neuropetide, Substance-P, in mice, and scratching behavior is observed and quantitated. […] Clinically, scratching is used as an objective measure of itch since itch is a sensation which promotes the desire to scratch the stimulated area (Yosipovitch G., Definitions of Itch, in Itch Basic Mechanisms and Therapy, ed. Yosipovitch G., et al, 2003) Eight Albino male CD-1 mice per group, 7-9 weeks old, were used. Induction of scratching behavior in the mouse was based on known methods (Andoh T, et al., J Pharmacol Exp Ther. 286:1140-1145, 1998) and produces features similar to itch in humans. An itch-associated response was induced by intradermal injection of Substance P in CD-1 mice, and scratching behavior is observed and quantitated. Before the experiment, mice were individually housed in a plastic cage for at least 1 hour for acclimation. Mice are pre-treated for 30 minutes with topical application of Sertaconazole Nitrate (1%) prepared in 100% ethanol, to an area of the back, which had been shaved one day prior to the experiment. […] The number of scratches elicited during a 30 minute period after injection of Substance-P was determined by playback of the videotape.

SMILES	reducing neurogenic inflammation (result in words) (CD-1 mice [1]; resiniferatoxin mouse ear model, compared to the control or untreated ear)	% Inhibition of the Ear Edema (CD-1 mice [1])	reduction of the itch compared to placebo (CD-1 mice [2]; Substance P scratching model, topical 1% sertaconazole nitrate)	Scratches per 30 min (Mean ± S. D.) (CD-1 mice [2]; topical 1% w/v in 100% ethanol on shaved back, 30 minutes pre-treatment, 300 ug Substance P intradermal, 30 minute period after injection)
Clc1ccc(C(Cn2ccnc2)OCc2csc3c(Cl)cccc23)c(Cl)c1 (centres unmarked) [Sertaconazole Nitrate, Sertaconazole nitrate]	highly effective	48.9%	38.7%	39.8 ± 2.7
CCN(CC)CC(=O)Nc1c(C)cccc1C [Lidocaine, Lidocaine hydrochloride]		28.7%		
